Test results from patent US20120015390A1, “Methods for the Detection and Treatment of Aberrant Prion Disease” (PROTEA BIOPHARMA N.V., priority 2009, published 2012).
Values joined by “and” are separate entries in the source; they are usually repeats but may differ in a detail not shown here. Equal entries are not always repeated.

Tests used:
[1] = system: aberrant membrane NADH oxidase; assay type: cell-based
NADH oxidase = assay type: cell-based
NADH-oxidase = settings: in vivo

Molecule | CPM NADH hypotoon [1] [CPM] | CPM NADH isotoon [1] [CPM] | CPM iso/hypo [1] | induction of aberrant NADH-oxidase (higher counts under isotonic conditions) [1] | formation of cell surface associated aberrant NADH oxidase (NADH oxidase) | CPM (NADH oxidase) | chemiluminescence response after addition of substance and hypotonic NADH (NADH oxidase) | chemiluminescence response after addition of substance and isotonic NADH (NADH oxidase) | isotonic NADH induced lucigenin-dependent chemiluminescence in urine (NADH-oxidase)
HgCl2 | 18 | 101 | 5.61 | suggest induction of aberrant NADH-oxidase | induces the formation of cell surface associated aberrant NADH oxidase | – | – | – | –
[Cl][Cd][Cl] [CdCl2] | 376 | 114 | 0.30 | – | – | – | – | – | –
O=[N+]([O-])[O-].O=[N+]([O-])[O-].[Pb+2] [Pb(NO3)2] | 817 | 1402 | 1.71 | suggest induction of aberrant NADH-oxidase | – | – | – | – | –
Heparin | – | – | – | – | – | 17740 CPM and 15303 CPM and 14082 CPM and 10372 CPM and 9192 CPM | significant concentration-dependent increase | not observed | –
C[S+](C)[O-] [DMSO] | – | – | – | – | – | – | significant concentration-dependent increase | not observed | increases
C[CH2][Hg][S]c1ccccc1C(=O)[O-].[Na+] [Thimerosal] | 3338 | 2380 | 0.71 | – | – | – | – | – | –
[Cl][Ni][Cl] [NiCl2] | 860 | 913 | 1.06 | suggest induction of aberrant NADH-oxidase | – | – | – | – | –
